Experimental data from patent publication US20140303144A1, “COMPOUNDS AND METHODS OF TREATING HYPERTENSION” (Medivation Technologies, Inc., priority 2011, published 2014).

Assays:
[1] = target: T1, human recombinant adrenergic α2B receptor (Homo sapiens, UniProt P18089); assay: Adrenergic α2B radioligand binding assay ([3H]Rauwolscine); settings: 0.1 μM compound; read-out: Percentage inhibition of ligand binding, Adrenergic α2B
T1 construct: expressed in transfected cells; host or cells: CHO-K1 cells
T1 sequence (P18089 1-450): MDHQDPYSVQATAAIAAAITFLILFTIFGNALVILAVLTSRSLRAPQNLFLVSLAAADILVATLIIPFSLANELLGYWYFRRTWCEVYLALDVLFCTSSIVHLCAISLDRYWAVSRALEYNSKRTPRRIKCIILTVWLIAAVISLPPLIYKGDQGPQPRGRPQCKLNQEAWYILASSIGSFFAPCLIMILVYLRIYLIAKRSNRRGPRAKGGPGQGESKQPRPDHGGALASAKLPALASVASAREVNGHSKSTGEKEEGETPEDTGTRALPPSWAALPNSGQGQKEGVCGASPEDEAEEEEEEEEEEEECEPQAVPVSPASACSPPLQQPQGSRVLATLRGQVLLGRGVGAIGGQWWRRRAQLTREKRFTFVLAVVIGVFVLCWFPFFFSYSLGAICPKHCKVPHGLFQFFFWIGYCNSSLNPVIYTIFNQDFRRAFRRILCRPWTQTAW
Method: To evaluate in radioligand binding assays the activity of compounds of the invention, human recombinant adrenergic α2B receptor expressed in Chinese hamster ovary (CHO) K1 cells (Uhlen, S. et al, Eur. J. Pharmacol. 343(1):93, 1998) in a modified Tris-HCl buffer (50 mM Tris-HCl, pH 7.4, 12.5 mM MgCl2, 1 mM EDTA, 0.2% BSA) was used. Compounds of the invention were incubated with 2.5 nM [3H]Rauwolscine for 60 min at 25° C. Non-specific binding was estimated in the presence of 10 μM Prazosin. Receptor proteins were filtered and washed, the filters were then counted to determine [3H]Rauwolscine specifically bound. Compounds were screened at 1 μM or lower, using 1% DMSO as vehicle. Compounds of the invention were tested in this biochemical assay and percent inhibition of specific binding was determined. Biochemical assay results are presented as the percent inhibition of specific binding in Tables B1A-B1D.

[2] = system: SH-SY5Y cells; assay: Cell viability assay (MTS reduction) against 4-Br-A23187 challenge; type: cell-based; settings: Homo sapiens, SH-SY5Y, compound 10 nM, 4-Br-A23187 (2 μM) for 24 h, Control = 100, Vehicle = 0, read-out: Relative Cytoprotective capacity
Method: SH-SY5Y cells cultured in DMEM/F12 media supplemented with 10% FBS were seeded in 96-well microplates at 150,000 cells/cm^2. After 24 h, cells were depleted from FBS and kept in culture for 24 h before the experiment. A stock solution was prepared by dissolving the calcium ionophore 4-Br-A23187 (Calbiochem Cat. N^o 100107) in DMSO at 25 mM. Cells were then treated with 4-Br-A23187 (2 μM), hydrogen peroxide (300 μM) or the mitochondrial toxin rotenone (25 μM) in the presence of vehicle or Compound of the Invention for 24 h. Cell death was determined by measurements of LDH release according to the Cytotoxicity Detection KitPlus (Roche, Mannheim, Germany). Cell viability was determined by measuring the capacity of cells to metabolize MTS tetrazolium (MTS) according to the Cytotoxicity Detection KitPlus (Roche, Mannheim, Germany) and MTS reduction was assessed by the CellTiter 96® AQueous One Solution Cell Proliferation assay (Promega Corporation, Madison, Wis., USA). Compounds were screened at 10 nM, using DMSO as vehicle. Assay results for the experiments with Br-A23187 were presented as the MTS reduction capacity (cell viability) of untreated cells (control), 4-Br-A23187-treated cells (vehicle), and co-incubation of Br-A23187 with Compounds of the Invention treated cells and using […] (FCCP) at 10 μM for 30 min as a control. This assay assesses the ability of the test compounds to protect against cell death that was mediated by mitochondrial dysfunction. In the assay, the calcium ionophore 4-Br-A23187 was used to challenge the cells, causing calcium levels to rise in mitochondria, which leads to depolarization and cell death. Test compounds were assessed for their ability to prevent cell death in response to challenge with 4-Br-A23187.

Cc1cc(-c2ccc(F)cc2)c2c(c1)c1c(n2C)CCN(C)C1 [A7] was tested, and the inhibition at 0.1 µM [1] was -9%.
Cc1cc(C#Cc2cccs2)c2[nH]c3c(c2c1)CN(C)CC3 [A8] gave an inhibition at 0.1 µM [1] of -1%.
Cc1cc(-c2ccncc2)c2c(c1)c1c(n2C)CCN(C)C1 [A9] showed an inhibition at 0.1 µM [1] of -7% and a viability at 0.01 µM [2] of 15.8%.
For C#Cc1cc(C)cc2c3c(n(C)c12)CCN(C)C3 [A10], the inhibition at 0.1 µM [1] was 8%.
With C/C(=C\c1cc(C)cc2c3c(n(C)c12)CCN(C)C3)c1ccncc1 [A11] the inhibition at 0.1 µM [1] was 14% and the viability at 0.01 µM [2] was 37.6%.
Cc1cc(C#Cc2ccc(C)nc2)c2c(c1)c1c(n2C)CCN(C)C1 [A12] showed an inhibition at 0.1 µM [1] of 6% and a viability at 0.01 µM [2] of 35.7%.
Compound Cc1cc(CCc2ccc(C)nc2)c2c(c1)c1c(n2C)CCN(C)C1 [A13] has an inhibition at 0.1 µM [1] of 5% and a viability at 0.01 µM [2] of 19.7%.
With Cc1cc(/C=C/c2ccc(C)nc2)c2c(c1)c1c(n2C)CCN(C)C1 [A14] the inhibition at 0.1 µM [1] was -3%.
C/C(=C\c1cc(C)cc2c3c(n(C)c12)CCN(C)C3)c1ccc(C)nc1 [A15] was tested, and the inhibition at 0.1 µM [1] was 21%.
Work on Cc1cc(C#Cc2nccs2)c2[nH]c3c(c2c1)CN(C)CC3 [A16] yielded an inhibition at 0.1 µM [1] of 17%.
Compound Cc1cc(C#Cc2ccncc2)c2c(c1)c1c(n2C)CCN(C)C1 [A17] has an inhibition at 0.1 µM [1] of 21% and a viability at 0.01 µM [2] of 10.8%.
Compound Cc1ccc(C#Cc2cc(Cl)cc3c4c(n(C)c23)CCN(C)C4)cn1 [A18] has an inhibition at 0.1 µM [1] of 38% and a viability at 0.01 µM [2] of 26%.
For Cc1cc2c3c(c1)c1c(n3C(c3ccccc3)C2)CCN(C)C1 (stereo not shown) [B12], the inhibition at 0.1 µM [1] was 72%.
In the case of Cc1cc2c3c(c1)c1c(n3CC(C)(c3ccc(C)nc3)OC(C)C2)CCN(C)C1 (stereo not shown) [B160], the inhibition at 0.1 µM [1] is reported as -8%.
Compound Cc1cc2c3c(c1)c1c(n3C[C@@](C)(c3ccncc3)O[C@H]2C)CCN(C)C1 [B162] has an inhibition at 0.1 µM [1] of 27%.
Work on Cc1cc2c3c(c1)c1c(n3C[C@](C)(c3ccncc3)O[C@H]2C)CCN(C)C1 [B163] yielded an inhibition at 0.1 µM [1] of 4%.
Compound Cc1cc2c3c(c1)c1c(n3CC(C)(c3ccncc3)OC(C)C2)CCN(C)C1 (stereo not shown) [B165] has an inhibition at 0.1 µM [1] of 43%.
Cc1ccc2c(c1)c1c3n2C(c2ccccc2)=CCC3(C)CN(C)C1 (stereo not shown) [D10] showed an inhibition at 0.1 µM [1] of -6%.
For Cc1ccc2c(c1)c1c3n2CC(c2ccncc2)=CCC3(C)CN(C)C1 (stereo not shown) [D11], the inhibition at 0.1 µM [1] was 30% and the viability at 0.01 µM [2] was 30.3%.
For Cc1ccc2c(c1)c1c3n2C(c2ccccc2)CCC3(C)CN(C)C1 (stereo not shown) [D12], the inhibition at 0.1 µM [1] was -7% and the viability at 0.01 µM [2] was 32.5%.
